Reference: the RepoRT retention time repository (doi:10.1016/j.foodchem.2018.11.056)

Assay: RP, Thermo Scientific Hypersil GOLD aQ, 100 × 2.1 mm, 1.9 µm, 30 °C, 0.3 mL/min, estimated dead time 0.73 min; A: water + 0.1% formic acid; B: methanol + 0.1% formic acid + 4 mM ammonium formate; gradient (min/%B) 0/0 1/0 8/100 10/100
Conditions: stereoisomer not certain

`CC(=O)OCC12CC(O)C(C)=CC1OC1C(O)C(OC(C)=O)C2(C)C12CO2` (stereo not given) and `CC(=O)OCC12CC(OC(=O)CC(C)C)C(C)=CC1OC1C(O)C(OC(C)=O)C2(C)C12CO2` (stereo not given) are within 1.5-fold of each other in LC retention time: 4.9 min for the first, 6.78 min for the second.

`CC(=O)OCC12C(C=C(C)C(=O)C1O)OC1C(O)CC2(C)C12CO2` (stereo not given) and `CC1=CC2OC3C(O)CC(C)(C34CO4)C2(CO)C(O)C1=O` (stereo not given) are within 1.5-fold of each other in LC retention time: 5.25 min for the first, 4.26 min for the second.

`COc1cc2c(c3oc(=O)c4c(c13)CCC4=O)C1C=COC1O2` (stereo not given) and `COc1cc2c(c3oc(=O)c4c(c13)CCOC4=O)C1C=COC1O2` (stereo not given) are within 1.5-fold of each other in LC retention time: 6.26 min for the first, 5.89 min for the second.

`CC(C)CC1NC(=O)C(C)N(C)C(=O)CNC(=O)C(=Cc2ccccc2)N(C)C1=O` (stereo not given) and `C=CC(C)(C)C12CC3C(=O)NC(=Cc4cnc[nH]4)C(=O)N3C1Nc1ccccc12` (stereo not given) are within 1.5-fold of each other in LC retention time: 6.66 min for the first, 6.61 min for the second.

`CC1CCC2C(C)(C)C(O)CCC2(C)C12Cc1c(O)cc3c(c1O2)CNC3=O` (stereo not given) and `CC(C)(O)C1OC2CCC3(C)C(O)(CCC4Cc5c([nH]c6ccccc56)C43C)C2=CC1=O` (stereo not given) are within 1.5-fold of each other in LC retention time: 7.51 min for the first, 7.81 min for the second.

`COc1c(C)c2c(c(O)c1CC=C(C)CCC(=O)O)C(=O)OC2` and `CC1=C2C(=COC(C)C2C)C(=O)C(C(=O)O)=C1O` (stereo not given) are within 1.5-fold of each other in LC retention time: 6.77 min for the first, 6.53 min for the second.

`C=CC(C)(C)C12C=C(O)C(=O)N3C(=Cc4cnc[nH]4)C(=O)NC31N(OC)c1ccccc12` (stereo not given) and `CC(C)C1(NC(=O)C2CC3c4cccc5[nH]cc(c45)CC3N(C)C2)OC2(O)C3CCCN3C(=O)C(Cc3ccccc3)N2C1=O` (stereo not given) are within 1.5-fold of each other in LC retention time: 6.11 min for the first, 6.46 min for the second.

`COc1cc2c(c3oc(=O)c4c(c13)CCC4=O)C1CCOC1O2` (stereo not given) and `COc1cc2c(c3oc(=O)c4c(c13)CCOC4=O)C1CCOC1O2` (stereo not given) are within 1.5-fold of each other in LC retention time: 6.11 min for the first, 5.8 min for the second.

`CCCCC(C)C(OC(=O)CC(CC(=O)O)C(=O)O)C(CC(C)CC(O)CCCCC(O)CC(O)C(C)N)OC(=O)CC(CC(=O)O)C(=O)O` (stereo not given) and `CCCCC(C)C(OC(=O)CC(CC(=O)O)C(=O)O)C(CC(C)CC(O)CCCCCCC(O)C(C)N)OC(=O)CC(CC(=O)O)C(=O)O` (stereo not given) are within 1.5-fold of each other in LC retention time: 6.81 min for the first, 6.99 min for the second.

First: O=c1cc(CO)occ1O
Second: Cc1cc(O)cc2oc(=O)c3c(O)cc(O)cc3c12
The LC retention time of the first is 2.6-fold lower: 2.6 min for the first, 6.89 min for the second.

`COc1ccc2c3c4n(c2c1)C(C=C(C)C)OOC(C)(C)CC4N1C(=O)C2CCCN2C(=O)C1(O)C3O` (stereo not given) and `CC(C)CC1C(=O)N2CCCC2C2(O)OC(C)(NC(=O)C3C=C4c5cccc6[nH]cc(c56)CC4N(C)C3)C(=O)N12` (stereo not given) are within 1.5-fold of each other in LC retention time: 7.33 min for the first, 6.11 min for the second.

`C=C1C2OC3C=C(C)C(=O)C(O)C3(CO)C1(C)CC2O` (stereo not given) and `CC1=CC2OC3C(O)C(O)C(C)(C34CO4)C2(CO)C(O)C1=O` (stereo not given) are within 1.5-fold of each other in LC retention time: 4.77 min for the first, 3.7 min for the second.

`COc1cc(=O)oc(C=CC=CC=CC(C)=CC2(C)OC(C)C(C)(O)C2O)c1C` (stereo not given) and `COC1C(OC(=O)C=CC=CC=CC=CC(=O)O)CCC2(CO2)C1C1(C)OC1CC=C(C)C` (stereo not given) are within 1.5-fold of each other in LC retention time: 7.23 min for the first, 7.52 min for the second.

`CC(=O)OC1CC2(C)C3(CO3)C1OC1C=C(C)C(=O)C(O)C12CO` (stereo not given) and `CC(=O)OC1C(O)C2OC3C=C(C)C(=O)C(O)C3(CO)C1(C)C21CO1` (stereo not given) are within 1.5-fold of each other in LC retention time: 5.49 min for the first, 4.69 min for the second.

`CC1=CC2OC3C(O)C(O)C(C)(C2(CO)CC1OC(=O)CC(C)C)C31CO1` (stereo not given) and `CC(=O)OCC12CC(OC(=O)CC(C)C)C(C)=CC1OC1C(O)C(O)C2(C)C12CO2` (stereo not given) are within 1.5-fold of each other in LC retention time: 6.17 min for the first, 6.52 min for the second.

`CC1CCCC(=O)CCCCCc2cc(O)cc(O)c2C(=O)O1` (stereo not given) and `CC1CCCC(O)CCCCCc2cc(O)cc(O)c2C(=O)O1` (stereo not given) are within 1.5-fold of each other in LC retention time: 7.1 min for the first, 6.88 min for the second.

Going from `O=C1C=C2C(=CCOC2O)O1` (stereo not given) to `CN1C(=O)C23CC4=CC=CC(O)C4N2C(=O)C1(CO)SS3` (stereo not given), the LC retention time rises from 2.12 min to 5.48 min (2.6-fold).

`COCC1OC(=O)c2coc3c2C1(C)C1=C(C3=O)C2CCC(=O)C2(C)CC1OC(C)=O` (stereo not given) and `CC(C)CC1C(=O)N2CCCC2C2(O)OC(NC(=O)C3C=C4c5cccc6[nH]cc(c56)CC4N(C)C3)(C(C)C)C(=O)N12` (stereo not given) are within 1.5-fold of each other in LC retention time: 6.14 min for the first, 6.5 min for the second.

`COc1cc2c(c3oc(=O)c4c(c13)CCC4=O)C1(O)C=COC1O2` (stereo not given) and `COc1cc2c(c3oc4cccc(O)c4c(=O)c13)C1C=COC1O2` (stereo not given) are within 1.5-fold of each other in LC retention time: 5.77 min for the first, 7.49 min for the second.

`CC1=CC2c3cccc4[nH]cc(c34)CC2N(C)C1` (stereo not given) and `CC(C)C1(NC(=O)C2C=C3c4cccc5[nH]cc(c45)CC3N(C)C2)OC2(O)C3CCCN3C(=O)C(Cc3ccccc3)N2C1=O` (stereo not given) are within 1.5-fold of each other in LC retention time: 5.35 min for the first, 6.55 min for the second.

`CC1Cc2ccc(C(=O)NC(Cc3ccccc3)C(=O)O)c(O)c2C(=O)O1` (stereo not given) and `CC1CCCC(=O)CCCC=Cc2cc(O)cc(O)c2C(=O)O1` (stereo not given) are within 1.5-fold of each other in LC retention time: 6.78 min for the first, 7.16 min for the second.

`CC1=CC2OC3C(OC4OC(CO)C(O)C(O)C4O)CC(C)(C34CO4)C2(CO)C(O)C1=O` (stereo not given) and `CC1=CC2OC3C(O)C(O)C(C)(C2(CO)CC1O)C31CO1` (stereo not given) are within 1.5-fold of each other in LC retention time: 4.29 min for the first, 3.76 min for the second.

Work on `CCCCC(C)C(OC(=O)CC(CC(=O)O)C(=O)O)C(CC(C)CCCCCCC(O)CC(O)C(C)N)OC(=O)CC(CC(=O)O)C(=O)O` (stereo not given) yielded an LC retention time of 7.19 min.
